In paper doi:10.64898/2025.12.08.692997v2 (biorxiv, 2025):
pIC50: −log10 of the molar value. Structures can show the parent of a compound that is named as a salt. Where two headings read alike, the source gives them in different places. One block for each compound: values may come before it.

Tests used:
Test in all cases: biochemical
[1] = molecular target: T1, human EphB2-His ectodomain - human EphrinB2-Fc ectodomain (EphB2-EphrinB2 tetramer) (Homo sapiens, UniProt P29323+P52799); details: EphrinB2-EphB2 IC50 (Absolute, µM)
[2] = molecular target: T1, human EphB2-His ectodomain - human EphrinB2-Fc ectodomain (EphB2-EphrinB2 tetramer); details: EphrinB2-EphB2 IC50 (Relative, µM)
[3] = molecular target: T1, human EphB2-His ectodomain - human EphrinB2-Fc ectodomain (EphB2-EphrinB2 tetramer)
[4] = molecular target: T1, human EphB2-His ectodomain - human EphrinB2-Fc ectodomain (EphB2-EphrinB2 tetramer); remark: listed apart in the source

T1 sequence (P52799 28-229): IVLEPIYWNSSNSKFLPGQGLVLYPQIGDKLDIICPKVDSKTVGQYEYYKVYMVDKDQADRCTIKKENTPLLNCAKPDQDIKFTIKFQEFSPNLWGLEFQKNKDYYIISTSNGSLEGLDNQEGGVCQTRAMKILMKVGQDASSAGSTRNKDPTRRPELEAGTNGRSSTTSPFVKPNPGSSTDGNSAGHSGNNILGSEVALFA
T1 sequence (P29323 19-543): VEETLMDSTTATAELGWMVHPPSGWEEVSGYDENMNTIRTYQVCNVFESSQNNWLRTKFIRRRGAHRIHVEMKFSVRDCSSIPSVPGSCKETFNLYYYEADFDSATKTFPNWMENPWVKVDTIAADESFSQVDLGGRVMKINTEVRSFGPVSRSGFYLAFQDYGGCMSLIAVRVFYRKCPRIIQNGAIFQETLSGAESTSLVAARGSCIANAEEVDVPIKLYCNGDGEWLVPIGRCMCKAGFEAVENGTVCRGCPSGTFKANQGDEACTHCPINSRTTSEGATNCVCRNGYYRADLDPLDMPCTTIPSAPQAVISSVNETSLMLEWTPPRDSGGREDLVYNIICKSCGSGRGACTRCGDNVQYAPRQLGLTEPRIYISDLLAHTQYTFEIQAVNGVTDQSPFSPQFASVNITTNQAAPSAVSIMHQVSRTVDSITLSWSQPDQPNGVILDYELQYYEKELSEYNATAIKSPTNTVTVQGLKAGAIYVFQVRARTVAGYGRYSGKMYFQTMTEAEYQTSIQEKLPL

IC50 [1]: > 3.2 µM
SMILES: Cc1ccc2c(CN3CCOCC3)cc(Br)c(O)c2n1 [2-MeA20, 7-bromo-2-methyl-5-(morpholinomethyl)quinolin-8-ol]

IC50 [1]: > 1.6 µM
IC50 [2]: > 1.6 µM
SMILES: Cc1ccc2c(CN3CCN(c4ccc(Br)cc4)CC3)ccc(O)c2n1 [2-MeQPB4 . 2 HCl, 5-((4-(4-bromophenyl)piperazin-1-ium-1-yl)methyl)-8-hydroxy-2-methylquinolin-1-ium chloride]

IC50 [1]: > 3.2 µM
IC50 [2]: > 3.2 µM
SMILES: Cc1ccc2c(CN3CCN(c4ccc(Br)cc4)CC3)ccc(O)c2n1 [2-MeQPB4, 5-((4-(4-bromophenyl)piperazin-1-yl)methyl)-2-methylquinolin-8-ol]

IC50 [1]: > 3.2 µM
IC50 [2]: > 3.2 µM
SMILES: OCc1ccc2c(CN3CCOCC3)ccc(O)c2n1 [2OH-A19, 2-(hydroxymethyl)-5-(morpholinomethyl)quinolin-8-ol]

IC50 [1]: > 3.2 µM
SMILES: OCc1ccc2c(CN3CCOCC3)cc(Br)c(O)c2n1 [2OH-A20, 7-bromo-2-(hydroxymethyl)-5-(morpholinomethyl)quinolin-8-ol]

IC50 [1]: > 1.6 µM
SMILES: COc1ccccc1N1CCN(Cc2cc(Br)c(O)c3ncccc23)CC1 [3511-0013, 7-bromo-5-((4-(2-methoxyphenyl)piperazin-1-yl)methyl)quinolin-8-ol]

IC50 [1]: > 3.2 µM
SMILES: COc1ccccc1N1CCN(Cc2ccc(O)c3ncccc23)CC1 [3511-0013-BF, 5-((4-(2-methoxyphenyl)piperazin-1-yl)methyl)quinolin-8-ol]

IC50 [1]: > 6.4 µM
SMILES: Oc1ccc(CN2CCOCC2)c2cccnc12 [A19 . 2 HCl, 4-((8-hydroxyquinolin-1-ium-5-yl)methyl)morpholin-4-ium chloride]

IC50 [1]: > 1.6 µM
IC50 [2]: > 1.6 µM
SMILES: O=[N+]([O-])c1cc(CN2CCOCC2)c2cccnc2c1O [A19-NO2 . 2 HCl, 4-((8-hydroxy-7-nitroquinolin-1-ium-5-yl)methyl)morpholin-4-ium chloride]

IC50 [1]: > 3.2 µM
IC50 [2]: > 3.2 µM
SMILES: O=[N+]([O-])c1cc(CN2CCOCC2)c2cccnc2c1O [A19-NO2, 5-(morpholinomethyl)-7-nitroquinolin-8-ol]

IC50 [1]: 0.78 µM
SMILES: Oc1c(Br)cc(CN2CCOCC2)c2cccnc12 [A20 . 2 HCl, 4-((7-bromo-8-hydroxyquinolin-1-ium-5-yl)methyl)morpholin-4-ium chloride]

IC50 [1]: > 3.2 µM
IC50 [2]: > 3.2 µM
SMILES: O=C(Cc1ccccc1)Nc1ccc(N2CCN(Cc3cc(Br)c(O)c4ncccc34)CC2)cc1 [BQPA-PAc, N-(4-(4-((7-bromo-8-hydroxyquinolin-5-yl)methyl)piperazin-1-yl)phenyl)-2-phenylacetamide]

IC50 [1]: > 3.2 µM
SMILES: Oc1c(Br)cc(CN2CCN(Cc3ccc(Br)cc3)CC2)c2cccnc12 [BQPB4-Bn, 7-bromo-5-((4-(4-bromobenzyl)piperazin-1-yl)methyl)quinolin-8-ol]

IC50 [1]: > 3.2 µM
IC50 [2]: > 3.2 µM
SMILES: COc1ccc2[nH]cc(C(=O)N3CCOCC3)c2c1 [IM, (5-methoxy-1H-indol-3-yl)(morpholino)methanone]

IC50 [1]: > 1.6 µM
IC50 [2]: > 1.6 µM
SMILES: COc1ccc2[nH]cc(C(=O)N3CCN(c4ccccc4OC)CC3)c2c1 [IMP2, (5-methoxy-1H-indol-3-yl)(4-(2-methoxyphenyl)piperazin-1-yl)methanone]

IC50 [1]: > 1.6 µM
IC50 [2]: > 1.6 µM
SMILES: COc1ccc2[nH]cc(C(=O)N3CCN(c4ccc(Br)cc4)CC3)c2c1 [IPB4, (4-(4-bromophenyl)piperazin-1-yl)(5-methoxy-1H-indol-3-yl)methanone]

IC50 [1]: > 3.2 µM
SMILES: CC(=O)Nc1ccc(N2CCN(Cc3ccc(O)c4ncccc34)CC2)cc1 [QPA-Ac, N-(4-(4-((8-hydroxyquinolin-5-yl)methyl)piperazin-1-yl)phenyl)acetamide]

IC50 [1]: > 1.6 µM
SMILES: Oc1ccc(CN2CCN(c3ccc(Br)cc3)CC2)c2cccnc12 [QPB4 . 2 HCl, 5-((4-(4-bromophenyl)piperazin-1-ium-1-yl)methyl)-8-hydroxyquinolin-1-ium chloride]

IC50 [1]: > 1.6 µM
IC50 [2]: > 1.6 µM
SMILES: Oc1ccc(CN2CCN(Cc3ccc(C(F)(F)F)cc3)CC2)c2cccnc12 [QPCF34-Bn, 5-((4-(4-(trifluoromethyl)benzyl)piperazin-1-yl)methyl)quinolin-8-ol]

IC50 [1]: > 1.6 µM
IC50 [2]: > 1.6 µM
SMILES: Oc1ccc(CN2CCN(c3ccc(F)cc3F)CC2)c2cccnc12 [QPDF, 5-((4-(2,4-difluorophenyl)piperazin-1-yl)methyl)quinolin-8-ol]

IC50 [1]: > 1.6 µM
SMILES: Oc1ccc(CN2CCN(c3ccc(I)cc3)CC2)c2cccnc12 [QPI4 . 2HCl, 8-hydroxy-5-((4-(4-iodophenyl)piperazin-1-ium-1-yl)methyl)quinolin-1-ium chloride]

IC50 [1]: > 3.2 µM
SMILES: Oc1ccc(CN2CCN(c3ccc(Br)cn3)CC2)c2cccnc12 [QPP. 2 HCl, 5-((4-(5-bromopyridin-2-yl)piperazin-1-ium-1-yl)methyl)-8-hydroxyquinolin-1-ium chloride]

IC50 [1]: > 1.6 µM
IC50 [2]: > 1.6 µM
SMILES: Oc1ccc(CN2CCN(c3ccccc3)CC2)c2cccnc12 [QPPh . 2HCl, 8-hydroxy-5-((4-phenylpiperazin-1-ium-1-yl)methyl)quinolin-1-ium chloride]

IC50 [1]: > 3.2 µM
SMILES: Oc1ccc(CN2CCN(c3ccccc3)CC2)c2cccnc12 [QPPh, 5-((4-phenylpiperazin-1-yl)methyl)quinolin-8-ol]

IC50 [2]: 0.62 µM
SMILES: O=S1(=O)CCN(Cc2cc(Br)c(O)c3ncccc23)CC1 [QTM-Br . 2 HCl, 4-((7-bromo-8-hydroxyquinolin-1-ium-5-yl)methyl)thiomorpholin-4-ium 1,1-dioxide chloride]

IC50 [1]: > 1.6 µM
SMILES: O=S1(=O)CCN(Cc2cc(I)c(O)c3ncccc23)CC1 [QTM-I . 2 HCl, 4-((8-hydroxy-7-iodoquinolin-1-ium-5-yl)methyl)thiomorpholin-4-ium 1,1-dioxide chloride]

IC50 [1]: > 3.2 µM
SMILES: O=[N+]([O-])c1cc(CN2CCS(=O)(=O)CC2)c2cccnc2c1O [QTM-NO2, 4-((8-hydroxy-7-nitroquinolin-5-yl)methyl)thiomorpholine 1,1-dioxide]

pIC50 [3]: < 4.00
SMILES: O=C(Oc1cccc2cccnc12)c1ccc(Br)cc1 [compound 1, 8-quinolinyl 4-bromobenzoate]

SMILES: CN(C(=O)Oc1cccc2cccnc12)c1ccccc1 [compound 2, 8-quinolinyl methyl(phenyl)carbamate]
pIC50 [4]: < 4.00

SMILES: CN(C(=O)Oc1c(Cl)cc(Cl)c2cccnc12)c1ccccc1 [compound 3, 5,7-dichloro-8-quinolinyl methyl(phenyl)carbamate]
pIC50 [4]: < 4.00

SMILES: CCN(CC)C(=O)Oc1c(Cl)cc(Cl)c2cccnc12 [compound 6, 5,7-dichloro-8-quinolinyl diethylcarbamate]
pIC50 [4]: < 4.00

pIC50 [3]: < 4.00
SMILES: O=C(Oc1ccc(Cl)c2cccnc12)c1cccc(Br)c1 [compound 7, 5-chloro-8-quinolinyl 3-bromobenzoate]

pIC50 [4]: < 4.00
SMILES: CCN(CC)C(=O)Oc1c(Br)cc(Cl)c2cccnc12 [compound 7, 7-bromo-5-chloro-8-quinolinyl diethylcarbamate]

pIC50 [3]: < 4.00
SMILES: O=C(Oc1ccc(Cl)c2cccnc12)c1cccc(Cl)c1 [compound 8, 5-chloro-8-quinolinyl 3-chlorobenzoate]

SMILES: CN(C)C(=O)Oc1c(Br)cc(Cl)c2cccnc12 [compound 8, 7-bromo-5-chloro-8-quinolinyl dimethylcarbamate]
pIC50 [4]: < 4.00

pIC50 [4]: < 4.00
SMILES: O=C(Oc1c(I)cc(Cl)c2cccnc12)N1CCCCC1 [compound 9, 5-chloro-7-iodo-8-quinolinyl 1-piperidinecarboxylate]

pIC50 [4]: < 4.00
SMILES: CCN(CC)C(=O)Oc1c(I)cc(Cl)c2cccnc12 [compound 10, 5-chloro-7-iodo-8-quinolinyl diethylcarbamate]

pIC50 [3]: < 4.00
SMILES: O=C(Oc1ccc(Cl)c2cccnc12)c1ccc(Cl)c(Cl)c1 [compound 10, 5-chloro-8-quinolinyl 3,4-dichlorobenzoate]

SMILES: CN(C)C(=O)Oc1c(I)cc(Cl)c2cccnc12 [compound 11, 5-chloro-7-iodo-8-quinolinyl dimethylcarbamate]
pIC50 [4]: < 4.00

SMILES: Cc1ccc(N(C)C(=O)Oc2c(Br)cc(Br)c3ccc(C)nc23)cc1 [compound 13, 5,7-dibromo-2-methylquinolin-8-yl methyl(4-methylphenyl)carbamate]
pIC50 [4]: < 4.00

pIC50 [3]: < 4.00
SMILES: COc1ccc(C(=O)Oc2cccc3cccnc23)cc1Cl [compound 13, 8-quinolinyl 3-chloro-4-methoxybenzoate]

pIC50 [4]: < 4.00
SMILES: O=C(Oc1c(Cl)cc(Cl)c2cccnc12)N1CCOCC1 [compound 14, 5,7-dichloro-8-quinolinyl 4-morpholinecarboxylate]

pIC50 [3]: < 4.00
SMILES: COc1cc(C(=O)Oc2ccc(Cl)c3cccnc23)cc(OC)c1OC [compound 14, 5-chloro-8-quinolinyl 3,4,5-trimethoxybenzoate]

pIC50 [3]: < 4.00
SMILES: COc1cc(OC)cc(C(=O)Oc2ccc(Cl)c3cccnc23)c1 [compound 15, 5-chloro-8-quinolinyl 3,5-dimethoxybenzoate]

pIC50 [4]: < 4.00
SMILES: O=C(Oc1c(Br)cc(Cl)c2cccnc12)N1CCOCC1 [compound 15, 7-bromo-5-chloro-8-quinolinyl 4-morpholinecarboxylate]

pIC50 [3]: < 4.00
SMILES: COc1ccc(C(=O)Oc2ccc(Cl)c3cccnc23)cc1 [compound 16, 5-chloro-8-quinolinyl 4-methoxybenzoate]

pIC50 [3]: < 4.00
SMILES: Cc1ccc(C(=O)Oc2c(Cl)cc(Cl)c3cccnc23)cc1C [compound 17, 5,7-dichloro-8-quinolinyl 3,4-dimethylbenzoate]

pIC50 [3]: < 4.00
SMILES: Cc1cccc(C(=O)Oc2ccc(Cl)c3cccnc23)c1 [compound 18, 5-chloro-8-quinolinyl 3-methylbenzoate]
